According to patent US9260710B2, “Photocleavable linker” (City of Hope, priority 2012, dated 2016):

How the values were obtained:
[1] = system: GFP-LC8 trap transfected Cos1/Cos7 cells; assay: Organelle dispersion and microtubule array in cells expressing the LC8 trap; type: cell-based; conditions: expression of the trap alone, no AP20187
Description: In vivo effect of Dynein LC and IC Traps. As tests for LC function, we evaluated the effects of the traps on early endosome, lysosome, and Golgi distribution, as well as mitotic progression. First, we fused green fluorescent protein (GFP) to the N-terminus of both FKBP-traps to identify transfected cells. Next, we transfected Cos1, Cos7, or HeLa cells with either trap or a GFP-FKBP control and labeled endosomes, lysosomes and Golgi with EEA1, LAMP2 and GM130 markers, respectively (FIGS. 12A-12C). […] The percentage of cells expressing the GFPLC8 or GFP-TcTex1 trap with dispersed endosomes was 14.7±1.5% and 13.3±1.5%, respectively, as compared to 11.7±3.5% and 10.3±3.5% for non-transfected cells and cells that expressed a GFP-FKBP control, respectively. […] After 8 h of treatment with AP20187, we observed greater than 50% dispersion of the three organelle types for each trap.
To ensure the AP20187 concentration was not limiting, we followed the LC8-trap-induced dispersion of lysosomes as a function of AP20187 concentration after 8 h. […] For the TcTex1-trap, we observed efficient endosome, lysosome and Golgi dispersion at AP20187 concentrations of 1 μM or greater.
Kinetic Analysis Separates Dynein Functions. A major purpose for developing these traps is to provide immediate inhibition of protein function and follow the cellular response from this perturbation to gain new insight. Thus, we monitored the fraction of cells with dispersed organelles as a function of time. After induction of dimerization by AP20187, effects on both early endosome and lysosome distribution were detectable at 10 min, and leveled off at ˜2 h (FIGS. 14A-14B). […] The most rapid effect was observed on lysosomes in cells expressing the LC8 trap. In striking contrast, Golgi dispersal using either trap occurred over a much longer time-course, requiring 8 h after induction of dimerization to reach similar levels of dispersion as for endosomes and lysosomes. Twenty-four hours after addition of AP20187, the percentage of cells with dispersed Golgi reached levels greater than 85%.

LC8 = target: T1, LC8 (Homo sapiens, UniProt P63167); assay: Defective mitotic spindle morphology; type: cell-based; conditions: transfected cells
T1 construct: we monitored the distribution of Golgi in cells subjected to LC8 RNAi; endogenous in cells
T1 sequence (P63167 whole entry): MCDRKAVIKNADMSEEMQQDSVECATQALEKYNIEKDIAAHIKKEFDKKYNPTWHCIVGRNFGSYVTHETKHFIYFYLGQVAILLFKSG
Description: As a test for effects on cytoplasmic dynein functions that are distinct from vesicular transport, we monitored mitotic behavior in cells expressing either the LC8- or TcTex1-traps. We observed little effect on either mitotic index or the fraction of mitotic cells at discrete mitotic stages with either trap (data not shown). […] Finally, similar studies were carried out using the IC trap. As before, we observed little or no change in the dispersion of endosomes and Golgi apparatus before AP20187 treatment. Induction of dimerization through the addition of AP20187 (1 μM) produced immediate changes in both organelles. After 4 h, 81+4% of cells contained dispersed endosomes and 68+3% of cells contained dispersed Golgi. […] The precise reason for this difference is not clear; however, currently, we attribute this to a change in the cytoskeleton, but this must still be verified. We are also in the process of measuring the effect of sequestering the dynein IC on mitotic behavior.

TcTex1 = assay: Trap specificity by native PAGE, TcTex1; type: binding; conditions: with or without AP20187 treatment
Description: In addition, there is no evidence that LC8 can bind proteins bearing a TcTex1 sequence or vice versa (e.g., LC8 binds to BimEL, Pak1, nNOS, etc.; TcTex1 binds to Doc2α, PTHR receptor, etc.50).

Row | Substance | percentage of cells with dispersed endosomes [1] [%] | defective mitotic spindle morphology (LC8) | binding to TcTex1 (TcTex1)
1 | GFPLC8: green fluorescent protein fused to the N-terminus of the FKBP LC8-trap | 14.7±1.5 | – | –
2 | LC8-trap: LC8 binding region of the dynein IC (residues 125-137, rat IC2C) fused to the C-terminus of FKBP | – | 20+2% | does not bind
